Laboratory results taken from PMC7170889, “Synthesis and evaluation of designed PKC modulators for enhanced cancer immunotherapy” (Nature Communications, 2020).
pKi: −log10 of the molar value.

Legend:
PKCδ-GFP fusion protein = target: T1, PKCδ-GFP fusion protein (Homo sapiens, UniProt Q05655); assay: PKCδ-GFP translocation assay in living CHO-k1 cells (confocal microscopy); assay type: cell-based, Chinese hamster; details: for minimum effective concentration required to induce translocation of PKC-GFP to the membrane: tested at 200 and 1000 nM
T1 construct: expressed in transfected cells; host or cells: CHO-k1 (Chinese hamster ovary, ATCC)
Protocol: (§1) With a panel of compounds bearing diverse functionality at C13, we began to explore how these modifications affect PKC binding and biological function. Because an obvious prerequisite for PKC pathway involvement is binding to PKC, compounds were initially evaluated for PKC affinity in a cell-free competitive binding assay with tritiated phorbol dibutyrate ([^3H]-PDBu). Assays were performed with representative members of both the conventional (PKCα) and novel (PKCδ) PKC families. Subsequently, compounds were assayed for PKC isoform translocation in real time in living cells using an optical assay. Translocation to the plasma membrane is the hallmark of PKC activation[18],[57],[60] and therefore monitoring the subcellular localization of a PKCδ-GFP fusion protein via confocal microscopy offers a convenient method for determining whether a compound enters a cell and engages its PKC isoform target. Finally and of clinical significance, we also determined the effect of compounds on CD22 surface expression in vitro in NALM6 cells, an ALL cell line previously studied in connection with CD22-targeted CAR T cell therapy, and two additional lymphoma cell lines[11],[31],[65].
Scale bar represents 25 μm. Experiments performed in n = 3 biological replicates. b–d Cytosolic fluorescence normalized to t = 0 (time immediately prior to addition of compound to media) and plotted against time. Error bars excluded for clarity (data presented as the mean of n = 3 biological replicates). Individual curves with error bars included in Supplementary Information.
PKCδ-GFP Translocation Assay Protocol
Chinese hamster ovary factor K1 (CHO-k1, ATCC) cells were cultured in F-12 Kaighn’s media (Hyclone, 10% fetal bovine serum, 1% penicillin/streptomycin added, reffered to as F-12 +/+ below) at 37 ° C in an incubator (5% CO2). Cell cultures were maintained by splitting cells 1:3 when they reached ~75-100% confluence (every 2-3 days) as follows:
(Gibco) was used to remove the cells from the culture flask (T75, Falcon). 1 mL of the cell suspension was then added to 9 mL of fresh F-12 +/+ and the sample was sub-cultured until reaching confluence (~2-3 days).
Cells were counted using a Countess II Automated Cell Counter (Fisher). The cell suspension was diluted to 240,000 cells/mL with fresh F-12 +/+ and 2.5 mL of this diluted stock was added to one well in a 6-well plate. The cells were then cultured for 24 hours.
Cells were transfected with Lipofectamine 2000 reagent (Invitrogen) or DA 13:11 at a 10:1 charge […]
F-12 +/+ was aspirated and cells were washed with F-12 -/-. 2 mL of fresh F-12 -/- was then added to each well, taking care not to disturb adherent cells. For each well of CHO-k1 cells, 12.5 µL Lipofectamine 2000 reagent (Invitrogen) was added to 250 µL Opti-MEM reduced serum media (Invitrogen) in a polypropylene tube and incubated for 20 minutes at RT. Meanwhile, for each well, 4 µg of PKCδ-GFP pDNA and 250 µL Opti-MEM reduced serum media was added to a separate polypropylene tube. 250 µL of the Lipofectamine 2000 suspension was added to the DNA suspension and the solution incubated for 30 minutes at RT. 500 µL of the Lipofectamine/DNA suspension was added to the respective wells of the 6-well plate. The cells were then incubated at 37 ° C (5% CO2) for ~24 hrs.
F-12 +/+ was aspirated and cells were washed with F-12 -/-. 2.4 mL of fresh F-12 -/- was then added to each well, taking care not to disturb adherent cells. A 4 µg aliquot of PKCδ-GFP pDNA was added to PBS (pH 5.5, final volume 100 µL). 5.6 µL of DA 13:11 (2 mM stock in DMSO) was then added to the DNA solution, and the mixture was gently mixed (by flicking) for 20 seconds, at which point it was added directly to the respective wells of the 6-well plate.

PKCα = target: T2, PKCα (Homo sapiens, UniProt P17252); assay: PKC competitive binding assay with [3H]-phorbol dibutyrate (PKCα); details: cell-free, competition with [3H]-PDBu, PS vesicles; read-out: Ki PKCα
T2 construct: purchased Invitrogen
Protocol: as §1
(§2) PKC Binding Assay Protocol […]
(§3) competition with 3H-phorbol-12,13-dibutyrate (3H-PDBu) as described below. This procedure entails a glass-fiber filtration method to determine bound radioligand.
(§4) Preparation of PKC binding assay buffer
(§5) To a 50 mL polypropylene tube was added Tris-HCl (pH 7.4, 1 M, 1 mL), KCl (1 M, 2 mL), CaCl2 (0.1 M, 30 μL), and bovine serum albumin (BSA, 40 mg, Sigma-Aldrich). This mixture was diluted to 20 mL with deionized H2O and mixed gently. The buffer was stored on ice until use. The final […]
(§6) Supplementary Table1. PKC binding assay buffer composition.
(§7) Preparation of phosphatidylserine (PS) vesicles
(§8) For every two assays, 3.5 mg phosphatidylserine (Avanti Polar Lipids, porcine, 25 mg/mL CHCl3 solution) was concentrated by removing chloroform under a stream of nitrogen followed by reduced pressure. The solid PS was suspended as vesicles in freshly prepared PKC binding assay buffer (3.5 mL) by sonicating six times for 30 sec, with a 30 sec rest between sonications (Branson Sonifier 250, power = 2, 50% duty cycle). The resulting milky cloudy mixture (1 mg/mL) was stored […]
(§9) Preparation of PKC isoform solution
(§10) Assay PKC was prepared by dissolving a 4 μg aliquot of the indicated recombinant human PKC isoform (Invitrogen) into 11.6 mL of PKC binding assay buffer (this amount is sufficient for two assays). The diluted PKC was stored on ice for immediate use.
(§11) Preparation of 3H-PDBu solution
(§12) 3H-PDBu (American Radiolabeled Chemicals, Inc.; 1 mCi/mL acetone solution; specific activity: […]) was diluted 10-fold with DMSO. The resulting 500 nM stock solution was further diluted with DMSO to 30 nM.
(§13) Preparation of analog compound dilutions
(§14) Compound dilutions were prepared by serially diluting from a chosen "high" concentration by factors of 3 or 4. For each analog compound, seven concentrations were used to define the […]
(§15) To a polypropylene tube was added 3.3 mL of 1 mg/mL PS vesicles solution, 11 mL of PKC isoform solution, and 1.1 mL of 30 nM 3H-PDBu solution were added. The resulting solution was vortexed to mix and stored on ice.
(§16) PKC binding assay protocol
(§17) - Glass-fiber filters (Whatman GF/B) were prepared by soaking them in a solution of aqueous polyethyleneimine (10% by vol, 18 mL) in deionized water (600 mL) for ≥1h.
(§18) - 500 mL "rinsing buffer" of 20 mM Tris, pH 7.4 was cooled on ice for the duration of the incubation period and for the remainder of the assay.
Triplicate data points were obtained for each analog concentration. For each data point, 280 μL of "Master Mix" Solution and 20 μL of analog compound at a specified concentration were added to a polypropylene tube. Non-specific 3H-PDBu binding was assessed in triplicate by substitution

PKC = PKC competitive binding assay, isoform not specified; parameters: species or system human; details: charged substituents at C13; Table 1 data
Protocol: as §1, §2, §3, §4, §5, §6, §7, §8, §9, §10, §11, §12, §13, §14, §15, §16
- Glass-fiber filters (Whatman GF/B) were prepared by soaking them in a solution of […]

PKCδ = target: T3, PKCδ (Homo sapiens, UniProt Q05655); assay: PKC competitive binding assay with [3H]-phorbol dibutyrate (PKCδ); details: cell-free, competition with [3H]-PDBu, PS vesicles
T3 construct: purchased Invitrogen
Protocol: as §1, §2, §3, §4, §5, §6, §7, §8, §9
Assay PKC was prepared by dissolving a 4 μg aliquot of the indicated recombinant human PKC isoform (Invitrogen) into 11.6 mL of PKC binding assay buffer (this amount is sufficient for two assays). The diluted PKC was stored on ice for immediate use. […]
μCi/mmol) was diluted 10-fold with DMSO. The resulting 500 nM stock solution was further diluted with DMSO to 30 nM.
as §13, §14, §15, §16, §17, §18
Triplicate data points were obtained for each analog concentration. For each data point, 280 μL of "Master Mix" Solution and 20 μL of analog compound at a specified concentration were added to a polypropylene tube. Non-specific 3H-PDBu binding was assessed in triplicate by substitution […]
μM). Maximal 3H-PDBu binding was assessed in triplicate by substitution of the analog compound with 20 μL DMSO. The solutions were vortexed to mix, incubated at 37 °C for 10 min, and […]

[1] = test system: CD22 surface expression in NALM6 cells; assay: CD22 surface expression in NALM6 cells (flow cytometry); assay type: cell-based, human; details: NALM6 cells at 1 nM relative to DMSO control; 24 h incubation, washout, 24 h sub-culture; n = 3
Protocol: CD22 Surface Expression Protocol – NALM6 Cells […]
unless otherwise noted below) at 37 ° C in an incubator (5% CO2). Cell cultures were maintained […]
Cell suspension from a confluent T75 flask (Fisher) was transferred to a 15 mL falcon tube and centrifuged at 1100 rpm for 7 minutes. The supernatant was aspirated, and the cell pellet was […]
Cells were counted using a Countess II Automated Cell
199 µL of this stock was added to 24 wells (enough for triplicate measurements for 8 different experimental conditions) in a 96-well plate. Dosing was […]
each experiment. 1 µL of DMSO or the appropriate stock solution of compound in DMSO was added to each well. Cells were incubated for 24 hours, at which point the cell suspensions were transferred to 1.5 mL Eppendorf tubes and diluted with 1.0 mL of PBS (Hyclone, without Ca2+ or Mg2+). Samples were centrifuged at 2000 rpm for 5 min at RT. The supernatant was aspirated, […]
Cells were sub-cultured between 2 […]
surface expression was assayed by flow cytometry.
Cells from one well were counted using a Countess II Automated Cell Counter (Fisher). ~200,000 – 300,000 cells from each well were added to 1.5 mL Eppendorf tubes containing PBS (final volume ~1.2 mL). The cell suspensions were centrifuged at 1500 rpm for 7 minutes at 4 °C. The supernatant was aspirated, and the cell pellet was resuspended in 99 µL of pre-chilled FACS […]
buffer (0.5% w/v BSA in PBS). […]
minutes. Samples were then diluted with an additional 1.0 mL of FACS buffer and centrifuged at 1500 rpm for 7 minutes at 4 °C. The supernatant was aspirated, the cell pellets were resuspended in 200 µL FACS buffer, and the resulting suspensions were transferred to FACS tubes (Fisher, […]
Cells were stained with DAPI and CD22 surface expression was analyzed using the FACScan Analyzer at the Stanford Shared FACS Facility. Data analysis was performed using FlowJo and Microsoft Excel.

T1 sequence (Q05655 whole entry, the tested form may be a part): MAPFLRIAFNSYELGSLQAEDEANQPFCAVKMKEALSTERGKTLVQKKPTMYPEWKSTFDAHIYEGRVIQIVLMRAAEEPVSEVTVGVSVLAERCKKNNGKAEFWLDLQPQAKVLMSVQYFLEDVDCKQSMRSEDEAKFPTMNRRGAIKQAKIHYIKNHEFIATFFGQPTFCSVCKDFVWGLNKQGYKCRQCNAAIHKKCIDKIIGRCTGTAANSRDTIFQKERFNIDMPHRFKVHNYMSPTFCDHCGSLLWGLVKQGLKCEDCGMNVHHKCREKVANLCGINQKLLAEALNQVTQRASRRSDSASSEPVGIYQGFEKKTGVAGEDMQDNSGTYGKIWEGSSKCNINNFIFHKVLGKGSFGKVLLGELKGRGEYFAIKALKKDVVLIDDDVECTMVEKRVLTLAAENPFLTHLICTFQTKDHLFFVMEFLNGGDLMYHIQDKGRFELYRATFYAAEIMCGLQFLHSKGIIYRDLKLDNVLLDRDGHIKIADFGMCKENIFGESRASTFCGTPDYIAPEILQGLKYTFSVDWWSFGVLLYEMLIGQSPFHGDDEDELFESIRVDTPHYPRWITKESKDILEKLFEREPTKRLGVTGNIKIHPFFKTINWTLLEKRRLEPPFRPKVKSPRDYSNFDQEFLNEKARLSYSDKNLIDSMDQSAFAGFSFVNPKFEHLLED
T3 sequence (Q05655 whole entry): as the sequence (Q05655 whole entry, the tested form may be a part) above

For `CCCC=CC=CC(=O)OC1C(=CC(=O)OC)CC2CC(C(C)O)OC(=O)CC(O)CC3CC(OC(C)=O)C(C)(C)C(O)(CC4CC(OC(=O)CN(C)C)CC(C=CC(C)(C)C1(O)O2)O4)O3` (stereo not shown) [SUW212], the Emax at 1 µM (PKCδ-GFP fusion protein; CHO-K1, 1000 nM compound, CHO-k1 cells, n = 3, read-out: % Translocation (maximum translocation of PKCδ-GFP to the plasma membrane)) was 50%, the “minimum effective concentration required to induce translocation of PKC-GFP to the membrane” value (“minimum effective concentration required” for short) (PKCδ-GFP fusion protein; CHO-k1 cells) was 1000 nM and the “sustained translocation of PKC” value (PKCδ-GFP fusion protein; at up to 1000 nM) was “did not achieve sustained translocation of PKC”. For the same molecule, the pKi (PKCα) was 7.40, the “decrease in affinity to PKC” value (PKC) was 20-100 fold and the pKi (PKCδ) was 7.62.
For `CCCC=CC=CC(=O)OC1C(=CC(=O)OC)CC2CC(C(C)O)OC(=O)CC(O)CC3CC(OC(C)=O)C(C)(C)C(O)(CC4CC(=CC(=O)OCc5ccccc5)CC(C=CC(C)(C)C1(O)O2)O4)O3` (stereo not shown) [SUW220], the “% Translocation (maximum translocation of PKCδ-GFP to the plasma membrane)” value (PKCδ-GFP fusion protein; 1000 nM compound, CHO-k1 cells, n = 3) was 50% and the “minimum effective concentration required” value (PKCδ-GFP fusion protein; CHO-k1 cells) was 1000 nM.
With `CCCCCCCC(=O)O[C@H]1/C(=C/C(=O)OC)C[C@H]2C[C@H]([C@@H](C)O)OC(=O)C[C@H](O)C[C@@H]3C[C@H](OC(C)=O)C(C)(C)[C@](O)(C[C@@H]4C[C@@H](C)C[C@H](/C=C/C(C)(C)[C@]1(O)O2)O4)O3` [SUW226] the Emax at 0.2 µM (PKCδ-GFP fusion protein; CHO-K1, 200 nM compound, CHO-k1 cells, n = 3, read-out: % Translocation (maximum translocation of PKCδ-GFP to the plasma membrane)) was 75% and the “minimum effective concentration required” value (PKCδ-GFP fusion protein; CHO-k1 cells) was 200 nM.
For `C=CCOC(=O)/C=C1\C[C@H]2C[C@]3(O)O[C@H](C[C@@H](O)CC(=O)O[C@@H]([C@@H](C)O)C[C@@H]4C/C(=C\C(=O)OC)[C@H](OC(=O)/C=C/C=C/CCC)[C@@](O)(O4)C(C)(C)/C=C/[C@@H](C1)O2)C[C@H](OC(C)=O)C3(C)C` [SUW230], the “% Translocation (maximum translocation of PKCδ-GFP to the plasma membrane)” value (PKCδ-GFP fusion protein; 200 nM compound, CHO-k1 cells, n = 3) was 65%, the “minimum effective concentration required” value (PKCδ-GFP fusion protein; CHO-k1 cells) was 200 nM and the “Fold increase CD22 expression” value [1] was 1.62 fold.
